Assay [1] addresses T1, Sphingosine kinase 2 (Homo sapiens) (UniProt Q9NRA0).
T1 sequence (whole entry): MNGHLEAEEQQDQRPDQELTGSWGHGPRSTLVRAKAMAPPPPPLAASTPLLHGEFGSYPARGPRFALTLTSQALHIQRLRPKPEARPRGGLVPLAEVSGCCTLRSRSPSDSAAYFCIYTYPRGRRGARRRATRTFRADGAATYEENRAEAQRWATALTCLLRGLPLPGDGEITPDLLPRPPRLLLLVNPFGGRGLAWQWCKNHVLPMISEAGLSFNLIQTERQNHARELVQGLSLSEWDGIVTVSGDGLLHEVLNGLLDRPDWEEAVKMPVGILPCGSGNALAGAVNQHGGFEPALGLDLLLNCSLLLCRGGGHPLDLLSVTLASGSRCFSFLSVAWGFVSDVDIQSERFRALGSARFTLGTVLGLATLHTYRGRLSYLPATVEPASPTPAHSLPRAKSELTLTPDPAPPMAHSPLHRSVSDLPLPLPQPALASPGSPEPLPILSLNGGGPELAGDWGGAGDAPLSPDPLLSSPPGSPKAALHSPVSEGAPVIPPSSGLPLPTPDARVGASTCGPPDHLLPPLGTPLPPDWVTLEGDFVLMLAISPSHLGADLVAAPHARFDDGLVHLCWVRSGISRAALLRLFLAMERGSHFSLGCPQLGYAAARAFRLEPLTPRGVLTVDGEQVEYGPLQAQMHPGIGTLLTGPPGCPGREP
Briefly: Inhibition of recombinant human Sphk2 expressed in baculovirus infected Sf9 insect cells assessed as residual activity at 0.3 uM using d-erythro-sphingosine as substrate measured after 20 mins in presence of [gamma-32P]ATP by liquid scintillation counting analysis relative to control.

In another assay the target is T2, Sphingosine kinase 2 (Homo sapiens, UniProt Q9NRA0).
T2 sequence (Q9NRA0 whole entry): T1 sequence (whole entry)
Put plainly: Inhibition of recombinant human Sphk2 expressed in baculovirus infected Sf9 insect cells using d-erythro-sphingosine as substrate measured after 20 mins in presence of [gamma-32P]ATP by liquid scintillation counting analysis.

Assay [2] has as its target T1, Sphingosine kinase 2 (Homo sapiens). Put plainly: Inhibition of Sphk2 in human U-937 cells using FTY720 as substrate measured after 2 hrs by LC-MS analysis. It is filed as cell-based. The following applies: dose 0.1-1 µM.
The target is the same in assay [3]. Briefly: Inhibition of recombinant human Sphk2 expressed in yeast strain KYA1 assessed as increase in yeast growth measured after 24 hrs.

The results in this text go back to ChEMBL document CHEMBL4732143 (Eur J Med Chem, 2021).

For the molecule `CCCCCCCCCCn1ccc2cc(-c3noc([C@@H]4CCCN4C(=N)N)n3)ccc21`, the Activity in assay [1] came out at 31%. The Ki (as a rule, the dissociation constant of the complex between target and ligand, obtained from inhibition or displacement) at Sphingosine kinase 2 turned out to be 120 nM.

On to `CCCCCCCn1cc(-c2noc([C@@H]3CCCN3C(=N)N)n2)c2ccccc21`, for which, in assay [1], the Activity was 96%.

For the molecule `CCCCCCCCCCn1ccc2c(-c3noc([C@@H]4CCCN4C(=N)N)n3)cccc21`, the Activity in assay [1] worked out at 64%. Regarding `CCCCCCCCn1cc(-c2noc([C@@H]3CCCN3C(=N)N)n2)c2ccccc21`, in assay [1], the Activity came to 73%. Still for that read-out and setting: for `CCCCCCCCCCn1ccc2ccc(-c3noc([C@@H]4CCCN4C(=N)N)n3)cc21` the value was 68%. For `CCCCCCCCCCCCn1cc(-c2noc([C@@H]3CCCN3C(=N)N)n2)c2ccccc21`, the Activity in assay [1] worked out at 46%. Also, the Ki at Sphingosine kinase 2 is 290 nM.

Consider `CCCCCCCn1ccc2c(-c3noc([C@@H]4CCCN4C(=N)N)n3)cccc21`, for which, in assay [1], the Activity is 89%. In the case of `CCCCCCCCn1ccc2c(-c3noc([C@@H]4CCCN4C(=N)N)n3)cccc21`, in assay [1], the Activity was 84%. Consider `CCCCCCCCCn1cc(-c2noc(C[C@@H]3CCCN3C(=N)N)n2)c2ccccc21`, for which, in assay [1], the Activity stood at 98%. Turning to `CCCCCCCCCn1cc(-c2noc([C@@H]3CCCN3C(=N)N)n2)c2ccccc21`, the Activity in assay [1] was 59%. With `CCCCCCn1ccc2cc(-c3noc([C@@H]4CCCN4C(=N)N)n3)ccc21`, in assay [1], the Activity came out at 72%. Turning to `CCCCCCCCCCn1cc(-c2noc([C@@H]3CCCN3C(=N)N)n2)c2ccccc21`, the Activity in assay [1] stood at 47%. The Ki at Sphingosine kinase 2 came to 300 nM. In the case of `CCCCCCCCCn1ccc2c(-c3noc([C@@H]4CCCN4C(=N)N)n3)cccc21`, the Activity in assay [1] came out at 68%. As to `CCCCCCCCCCCn1cc(-c2noc([C@@H]3CCCN3C(=N)N)n2)c2ccccc21`, the Activity in assay [1] was determined as 79%.

Take `CCCCCCCCCn1ccc2cc(-c3noc([C@@H]4CCCN4C(=N)N)n3)ccc21`: the inhibition result in assay [2] and in assay [3] was “Dose-dependent effect” in each case. The Activity in assay [1] came out at 25%. Further, the Ki on Sphingosine kinase 2 came out at 90 nM. As to `CCCCCCCCCn1ccc2ccc(-c3noc([C@@H]4CCCN4C(=N)N)n3)cc21`, the Activity in assay [1] came to 79%.

As to `CCCCCCCn1ccc2ccc(-c3noc([C@@H]4CCCN4C(=N)N)n3)cc21`, the Activity in assay [1] was 103%. Same read-out and setting: for `CCCCCCCCn1ccc2cc(-c3noc([C@@H]4CCCN4C(=N)N)n3)ccc21` the value was 87%. As to `CCCCCCCn1ccc2cc(-c3noc([C@@H]4CCCN4C(=N)N)n3)ccc21`, the Activity in assay [1] is 93%.

On to `CCCCOc1ccc2cc(-c3noc([C@@H]4CCCN4C(=N)N)n3)ccc2c1`, for which the Activity in assay [1] was found to be 95%. The Ki on Sphingosine kinase 2 was determined as 980 nM. Consider `CCCCCCCCn1ccc2ccc(-c3noc([C@@H]4CCCN4C(=N)N)n3)cc21`, for which the Activity in assay [1] was 93%.
